The values below come from patent US20200246241A1, “COSMETIC COMPOSITION FOR BLOCKING FINE DUST” (LG HOUSEHOLD & HEALTH CARE LTD., priority 2017, published 2020).

This experiment in a line: Estimation of fine dust attachment on PMMA plate coated with artificial sebum. The following applies: compared to control group or other compounds. The procedure: 1) Method for Estimating Fine Dust Attachment
i) After applying artificial sebum of 1.3 mg/cm^2 on a PMMA plate, it was dried for 15 minutes.
ii) After applying a test formulation on the dried artificial sebum in the same amount, it was dried for 15 minutes (Noting was applied on the control group).
iii) The PMMA plate was attached on the internal top of the self-made chamber, and a pan on the bottom of the chamber was operated for 5 minutes, to expose 0.5 g substitutive fine dusts (brand name LM-YG0510, comprising strontium carbonate, alumina, europium oxide, and dysprosium oxide).
iv) Using a magnifying glass (Aphrodite-3, 50×), UV images were photographed (measuring 4 points per plate).
v) Using ImagePro Plus, the area of dust attachment was measured.
vi) The fine dust attachment rate was calculated by comparing the sample with the result of 3 times of experiments (Setting the fine dust attachment rate of the control group to 100).

Entries after “also recorded” stand apart in the source; their conditions may differ.

Regarding `CCCCC(CC)COC(=O)c1ccc(Nc2nc(Nc3ccc(C(=O)NC(C)(C)C)cc3)nc(Nc3ccc(C(=O)OCC(CC)CCCC)cc3)n2)cc1` (stereo not drawn) [Diethylhexyl butamido triazone], the “effect of preventing fine dust attachment (in words)” value is on record as “excellent effect of preventing fine dust attachment; also recorded: excellent effect of reducing fine dust attachment”. Next, `CC(C)(C)CC(C)(C)c1cc(Cc2cc(C(C)(C)CC(C)(C)C)cc(-n3nc4ccccc4n3)c2O)c(O)c(-n2nc3ccccc3n2)c1` [Methylene Bis-Benzotriazolyl tetramethyl butylphenol]: “excellent effect of preventing fine dust attachment; also recorded: excellent effect of reducing fine dust attachment”; `O=S(=O)([O-])c1cc(S(=O)(=O)O)cc2[nH]c(-c3ccc(-c4nc5c(S(=O)(=O)[O-])cc(S(=O)(=O)O)cc5[nH]4)cc3)nc12.[Na+].[Na+]` [disodium phenyl dibenzimidazole tetrasulfonate]: “excellent effect of preventing fine dust attachment; also recorded: excellent effect of reducing fine dust attachment”.

`CCCCC(CC)COC(=O)c1ccc(Nc2nc(Nc3ccc(C(=O)OCC(CC)CCCC)cc3)nc(Nc3ccc(C(=O)OCC(CC)CCCC)cc3)n2)cc1` (stereo not drawn) [ethylhexyl triazone]: the “effect of preventing fine dust attachment (in words)” value was “excellent effect of preventing fine dust attachment; also recorded: excellent effect of reducing fine dust attachment”. The result for `Nc1nc(N)nc(N)n1` [melamine, 1,3,5-triazine-2,4,6-triamine] reads “excellent effect of preventing fine dust attachment”; that for trisbiphenyl triazine, “excellent effect of preventing fine dust attachment; also recorded: excellent effect of reducing fine dust attachment”.
